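These data come from cells grown in 96-well plates and exposed to compound for 48 hours at five concentrations. TGI: concentration producing complete growth inhibition.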
Tests used:
Experiment in all cases: inhibition of tumour cell growth, NCI panel, 48 h
[1] = tested on: HL-60(TB) leukemia
[2] = tested on: NCI-H23 lung
[3] = tested on: A549 NSCLC
[4] = tested on: SN12C renal
[5] = tested on: M14 melanoma
[6] = tested on: K-562 leukemia
[7] = tested on: MOLT-4 leukemia
[8] = tested on: SNB-19 CNS
[9] = tested on: NCI-H522 lung
[10] = tested on: MDA-MB-435

Row | SMILES | TGI [1] [µM] | TGI [2] [µM] | TGI [3] [µM] | TGI [4] [µM] | TGI [5] [µM] | TGI [6] [µM] | TGI [7] [µM] | TGI [8] [µM] | TGI [9] [µM] | TGI [10] [µM]
1 | O=C(Cc1ccc([N+](=O)[O-])cc1)OCC#CCOC(=O)Cc1ccc([N+](=O)[O-])cc1 | > 10 | > 10 | > 10 | > 10 | > 10 | > 10 | > 10 | > 10 | > 10 | > 10
2 | NC1CNC(=O)c2c(Cl)sc(Cl)c21 (stereo not drawn) |  | > 100 | > 100 | > 100 | > 100 | > 100 | > 100 | > 100 |  | > 100
3 | Brc1cccc(N=NN2CCCC2)c1 | > 100 | > 100 |  | > 100 | > 100 | > 100 | > 100 | > 100 | > 100 | > 100
4 | CCNC(=O)C1CCCN1C(=O)C(CCCN=C(N)N)NC(=O)C(CC(C)C)NC(=O)C(Cc1c[nH]c2ccccc12)NC(=O)C(Cc1ccc(O)cc1)NC(=O)C(CO)NC(=O)C(Cc1c[nH]c2ccccc12)NC(=O)C(Cc1cnc[nH]1)NC(=O)C1CCC(=O)N1 (stereo not drawn) |  | > 100 | > 100 | > 100 | > 100 | > 100 | > 100 | > 100 | > 100 | > 100
5 | Clc1ccc(OCc2nnc(CCCCCCCCc3nnc(COc4ccc(Cl)cc4)n3Nc3ccccc3)n2Nc2ccccc2)cc1 |  | > 100 | > 83.3 | 99 | > 38.3 | > 100 | > 100 | > 100 | 34.5 | > 63.4
6 | Nc1ccc2[nH]c(-c3cccc(Cl)c3)cc(=O)c2c1 |  | > 100 | > 100 | > 100 | > 100 |  | > 100 | > 100 | 6.87 | 2.39
7 | COC(=O)/C=C/c1cc(OC)c(OC)c(OC)c1 | > 100 | > 100 | > 100 | > 100 | > 100 |  | > 100 | > 100 | > 100 | 
8 | O=C(O)C(CO)NC(=O)n1c2ccccc2c2ccccc21 (stereo not drawn) | > 100 | > 100 | > 100 | > 100 |  | > 100 | > 100 | > 100 | > 100 | 
9 | COc1ccc(Nc2nc3c([nH]2)c(=O)n(C)c(=O)n3C)cc1 | > 10 | > 10 | > 10 | > 10 | > 10 | > 10 | > 10 |  |  | > 10
10 | FC(F)(F)c1ccc2nc3n(c2c1)C(c1c(Cl)cccc1Cl)SC3 (stereo not drawn) | 33.2 | 37 | 29.5 | 32.7 | 30.7 |  | > 100 | 34 | 29.7 | 30.5
11 | O=C(N/N=C/c1cc(Br)cc(Br)c1[O-])c1ccccc1O.O=C(N/N=C/c1cc(Br)cc(Br)c1[O-])c1ccccc1O.[Fe+2] | 11.2 | 9.66 | 29.3 |  | 14.5 |  | 19.8 | 20.4 | 11.4 | 

Source: PubChem BioAssay (NCI)
